ChEMBL document CHEMBL1201862, “PubChem BioAssay data set” (2004)
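Cells were grown in 96-well plates and exposed to each compound for 48 hours at five concentrations; endpoints were interpolated linearly between bracketing concentrations, or set to the highest concentration if not reached. Here, GI50 denotes the concentration required for 50% inhibition of growth.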 The source made the active and inactive calls. Cut-off read from the data, not from the text of the source: active = GI50 up to about 1.1 µM and inactive = higher.

Key:
Assay in all cases: NCI anticancer screen, dose series, 48 h
786-0 = tested on: 786-0
A549 = tested on: A549
ACHN = tested on: ACHN
CAKI-1 = tested on: CAKI-1
DU-145 = tested on: DU-145
HCC 2998 = tested on: HCC 2998
HCT-116 = tested on: HCT-116
HT-29 = tested on: HT-29
M14 = tested on: M14
MCF7 = tested on: MCF7
MDA-N = tested on: MDA-N
MOLT-4 = tested on: MOLT-4
NCI/ADR-RES = tested on: NCI/ADR-RES
SF-268 = tested on: SF-268
SF-295 = tested on: SF-295
SK-MEL-5 = tested on: SK-MEL-5
SW-620 = tested on: SW-620
TK-10 = tested on: TK-10
UACC-257 = tested on: UACC-257
SK-MEL-28 = tested on: SK-MEL-28

Measured: GI50

Cc1ccc(NC(=O)C23CC4CC(CC(C4)C2)C3)c(C(=O)NNC(=O)c2ccc(Cl)cc2)c1
inactive: 786-0 20.2 µM | A549 20 µM | ACHN 17.5 µM | CAKI-1 23.3 µM | DU-145 27.6 µM | HCC 2998 12.9 µM | HCT-116 25.8 µM | HT-29 23.7 µM | M14 31.8 µM | MCF7 17.4 µM | MDA-N 20.2 µM | MOLT-4 21.5 µM | NCI/ADR-RES 21.2 µM | SF-268 23.8 µM | SF-295 22.9 µM | SK-MEL-5 18.4 µM | SW-620 26.2 µM | TK-10 17.7 µM | UACC-257 2.14 µM

O=C(Nc1cccc(F)c1)c1cc2ccc(O)cc2o/c1=N\c1ccccc1F
inactive: 786-0 4.99 µM | A549 3.38 µM | ACHN 3.34 µM | CAKI-1 4.39 µM | DU-145 4.28 µM | HCC 2998 9.59 µM | HCT-116 4.03 µM | HT-29 21.2 µM | M14 5.32 µM | MCF7 3.33 µM | MDA-N 4.82 µM | MOLT-4 2.29 µM | NCI/ADR-RES 2.9 µM | SF-268 2.74 µM | SF-295 8.39 µM | SK-MEL-28 4.05 µM | SK-MEL-5 2.2 µM | SW-620 4.7 µM | UACC-257 4.33 µM

Cc1csc2c(=O)n(COCc3ccccc3)c(=O)[nH]c12
inactive: 786-0 > 100 µM | A549 > 100 µM | ACHN > 100 µM | CAKI-1 > 100 µM | DU-145 > 100 µM | HCT-116 > 100 µM | HT-29 > 100 µM | M14 > 100 µM | MCF7 95.9 µM | MDA-N > 100 µM | MOLT-4 > 100 µM | NCI/ADR-RES > 100 µM | SF-268 > 100 µM | SF-295 > 100 µM | SK-MEL-28 > 100 µM | SK-MEL-5 91.2 µM | SW-620 > 100 µM | TK-10 > 100 µM | UACC-257 > 100 µM

O=C1NC(=O)C(COCc2ccccc2)C2=C1SCCC2 (configuration not stated)
inactive: 786-0 > 100 µM | A549 > 100 µM | ACHN > 100 µM | CAKI-1 > 100 µM | DU-145 > 100 µM | HCC 2998 > 100 µM | HCT-116 > 100 µM | HT-29 > 100 µM | M14 > 100 µM | MCF7 > 100 µM | MDA-N > 100 µM | MOLT-4 > 100 µM | NCI/ADR-RES > 100 µM | SF-268 > 100 µM | SF-295 > 100 µM | SK-MEL-28 > 100 µM | SK-MEL-5 > 100 µM | SW-620 > 100 µM | UACC-257 > 100 µM

CCC(C)C(Nc1c2ccccc2nc2c(C(=O)NCCN(C)C)cccc12)C(=O)O (configuration not stated)
inactive: 786-0 9.89 µM | A549 12.3 µM | ACHN 7.94 µM | DU-145 38.1 µM | HCT-116 4.28 µM | HT-29 3.21 µM | M14 16.2 µM | MCF7 5.86 µM | MDA-N 17.2 µM | MOLT-4 7.59 µM | NCI/ADR-RES 10.4 µM | SF-268 13.6 µM | SF-295 12.3 µM | SK-MEL-28 23.6 µM | SK-MEL-5 15.7 µM | SW-620 9.16 µM | TK-10 38.5 µM

NS(=O)(=O)c1ccc(NC(=S)N/C=C2\C(=O)Oc3ccccc3C2=O)cc1
inactive: 786-0 40 µM | A549 43 µM | ACHN 18.3 µM | CAKI-1 19.3 µM | DU-145 27.4 µM | HCC 2998 34.8 µM | HCT-116 33.5 µM | HT-29 53.5 µM | M14 21.3 µM | MCF7 99.5 µM | MDA-N 34.4 µM | MOLT-4 53 µM | NCI/ADR-RES 31.4 µM | SF-268 38.5 µM | SF-295 32 µM | SK-MEL-5 26.1 µM | SW-620 40.1 µM | TK-10 28.2 µM | UACC-257 67.8 µM

CC(C)(C)[Si](C)(C)OCC1OC(n2ccc(N)nc2=O)C(O[Si](C)(C)C(C)(C)C)C1O[Si](C)(C)C(C)(C)C (configuration not stated)
inactive: 786-0 1.59 µM | A549 3.44 µM | ACHN 1.82 µM | DU-145 9.59 µM | HCT-116 3.14 µM | HT-29 1.56 µM | M14 1.8 µM | MCF7 2.14 µM | MDA-N 3.89 µM | MOLT-4 1.47 µM | NCI/ADR-RES 15.8 µM | SF-268 2.56 µM | SF-295 1.74 µM | SK-MEL-5 2.01 µM | SW-620 1.58 µM | UACC-257 3.33 µM

O=c1cc(N2CCCC2)[nH]c(=O)n1-c1ccc(F)cc1
inactive: 786-0 > 100 µM | A549 > 100 µM | ACHN > 100 µM | CAKI-1 > 100 µM | DU-145 > 100 µM | HCC 2998 > 100 µM | HCT-116 > 100 µM | HT-29 > 100 µM | M14 > 100 µM | MCF7 > 100 µM | MDA-N > 100 µM | MOLT-4 > 100 µM | NCI/ADR-RES > 100 µM | SF-268 > 100 µM | SF-295 > 100 µM | SK-MEL-28 > 100 µM | SW-620 > 100 µM | TK-10 > 100 µM | UACC-257 > 100 µM
